{"source": "patent US5789419A", "about": "“4-quinolinone derivative or salt thereof” (SS Pharmaceutical Co., Ltd., priority 1994, dated 1998)"}
{"test_system": "endothelium-ablated specimen of rat thoracic aorta", "experiment": "Effect of inhibiting contraction caused by 30 mM K on endothelium-ablated specimen of rat thoracic aorta", "format": "cell-based", "conditions": "10 min, cumulative application at intervals of 10 minutes, 37° C., 10^-4 M papaverine = 100% relaxation, read-out: median inhibitory concentration (IC50)", "description": "(Effect of inhibiting contraction caused by 30 mM K on endothelium-ablated specimen of rat thoracic aorta)\nA thoracic aorta was enucleated from a rat (weight: 129-492 g) and cut into lengths of 3 mm. Cotton in the form of a paper string was put in a lumen of each of ring specimens, and the inner surface of the ring specimen was rubbed several times with the cotton, thereby ablating an endothelium from the thoracic aorta specimen. This specimen was incubated at 37° C. and suspended in 10 ml of a Krebs-Henseleit solution, into which a mixed gas had been introduced, with a load of 2 g applied thereto. The tension thereof was isometrically recorded in a recorder through an FD transducer and a dynamic strain gage. After at least 60 minutes went on after the suspension, and the sample was stabilized, 10^-7 M noradrenaline was applied several times to the specimen. Under contraction caused by 10^-7 M noradrenaline, 10^-7 M acetylcholine was applied to the specimen. A specimen which manifested no relaxing effect at this time was used in an experiment as an endothelium-ablated specimen. Each of agents (compounds of Compound Numbers shown in Table 20 and Cromakalim) to be tested was cumulatively applied at intervals of 10 minutes from the time 30 mM K^+ had been applied to such a specimen, and the contraction of the specimen had been fixed, thereby calculating a median inhibitory concentration (IC50). Incidentally, 10^-4 M papaverine was applied to confirm 100% relaxing affect. The agents to be tested were dissolved (5×10^-2 M in dimethyl sulfoxide and diluted with purified water before their use.", "units": {"IC50": "nM"}}
{"compound": "CC1(C)Oc2ccc(C#N)cc2[C@@H](N2CCCC2=O)[C@@H]1O", "note": "(racemic) [Cromakalim, (±)-trans-6-cyano-2,2-dimethyl-4-(2-oxopyrrolidin-1-yl)-3,4-dihydro-2H-1-benzopyran-3-ol, reference compound]", "IC50": 130}
{"compound": "CC(=O)NN1CC(C)(C)C(=O)c2ccc(S(=O)(=O)C(F)(F)F)cc21", "note": "[Compound No. 44, 1-Acetoamino-2,3-dihydro-3,3-dimethyl-7-(trifluoromethyl) sulfonyl-4(1H)-quinolinone]", "IC50": 18.8}
{"compound": "CC(=O)NN1CC(C)(C)C(=O)c2ccc(S(=O)(=O)c3ccccc3)cc21", "note": "[Compound No. 53, 1-Acetoamino-2,3-dihydro-3,3-dimethyl-7-phenylsulfonyl-4(1H)-quinolinone]", "IC50": 83.2}
{"compound": "CC1(C)CN(N2CCCC2=O)c2cc(S(=O)(=O)c3ccccc3)ccc2C1=O", "note": "[Compound No. 63, 2,3-Dihydro-3,3-dimethyl-7-phenylsulfonyl-1-(2-oxopyrrolidin-1-yl)-4(1H)-quinolinone]", "IC50": 86.9}
{"compound": "CC(=O)NN1CC(C)(C)C(=O)c2ccc(C(F)(F)F)cc21", "note": "[compound 21]", "IC50": 100}
{"compound": "CC1(C)CN(NC(=O)c2cccnc2)c2cc(C(F)(F)F)ccc2C1=O", "note": "[compound 23]", "IC50": 66.2}
{"compound": "CC(=O)NN1CC(C)(C)C(=O)c2ccc(OC(F)(F)F)cc21", "note": "[compound 28]", "IC50": 48.2}
{"compound": "CCC(=O)NN1CC(C)(C)C(=O)c2ccc(OC(F)(F)F)cc21", "note": "[compound 29]", "IC50": 104}
{"compound": "CC1(C)CN(NC(=O)c2cccnc2)c2cc(OC(F)(F)F)ccc2C1=O", "note": "[compound 30]", "IC50": 49.2}
